{"source": "paper PMC4053474", "about": "(Bioconjugate chemistry, 2008)", "key": {"αvβ6": {"biological_target": "αvβ6 (Homo sapiens, UniProt P06756+P18564)", "sequence (P06756 31-889 limits assumed)": "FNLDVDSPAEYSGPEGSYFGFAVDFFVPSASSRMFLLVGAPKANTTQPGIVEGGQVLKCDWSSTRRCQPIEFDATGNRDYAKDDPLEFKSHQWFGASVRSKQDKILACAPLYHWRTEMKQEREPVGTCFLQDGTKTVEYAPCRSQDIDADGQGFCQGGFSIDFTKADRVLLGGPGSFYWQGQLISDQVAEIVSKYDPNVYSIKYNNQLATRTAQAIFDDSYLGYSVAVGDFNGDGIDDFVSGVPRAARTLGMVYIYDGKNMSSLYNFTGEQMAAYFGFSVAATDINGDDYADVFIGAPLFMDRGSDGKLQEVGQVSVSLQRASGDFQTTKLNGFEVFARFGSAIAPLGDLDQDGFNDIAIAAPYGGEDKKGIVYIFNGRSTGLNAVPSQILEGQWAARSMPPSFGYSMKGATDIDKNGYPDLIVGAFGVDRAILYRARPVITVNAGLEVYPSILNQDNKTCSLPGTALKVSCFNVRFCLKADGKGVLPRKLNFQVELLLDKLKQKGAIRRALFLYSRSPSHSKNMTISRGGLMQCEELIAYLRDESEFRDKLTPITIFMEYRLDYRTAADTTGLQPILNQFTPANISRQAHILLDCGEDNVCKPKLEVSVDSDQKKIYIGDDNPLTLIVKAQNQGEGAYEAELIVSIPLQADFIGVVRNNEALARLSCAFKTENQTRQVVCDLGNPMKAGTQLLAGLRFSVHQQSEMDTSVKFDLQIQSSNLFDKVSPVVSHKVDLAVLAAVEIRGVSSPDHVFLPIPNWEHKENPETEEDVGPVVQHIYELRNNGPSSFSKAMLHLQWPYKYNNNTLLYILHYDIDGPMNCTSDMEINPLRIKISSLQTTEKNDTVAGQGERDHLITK", "sequence (P06756 891-1048 partner limits assumed)": "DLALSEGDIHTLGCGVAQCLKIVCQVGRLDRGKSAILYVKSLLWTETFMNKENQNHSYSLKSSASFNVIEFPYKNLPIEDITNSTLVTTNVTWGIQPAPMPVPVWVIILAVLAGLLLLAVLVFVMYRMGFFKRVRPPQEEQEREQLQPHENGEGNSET", "sequence (P18564 22-788)": "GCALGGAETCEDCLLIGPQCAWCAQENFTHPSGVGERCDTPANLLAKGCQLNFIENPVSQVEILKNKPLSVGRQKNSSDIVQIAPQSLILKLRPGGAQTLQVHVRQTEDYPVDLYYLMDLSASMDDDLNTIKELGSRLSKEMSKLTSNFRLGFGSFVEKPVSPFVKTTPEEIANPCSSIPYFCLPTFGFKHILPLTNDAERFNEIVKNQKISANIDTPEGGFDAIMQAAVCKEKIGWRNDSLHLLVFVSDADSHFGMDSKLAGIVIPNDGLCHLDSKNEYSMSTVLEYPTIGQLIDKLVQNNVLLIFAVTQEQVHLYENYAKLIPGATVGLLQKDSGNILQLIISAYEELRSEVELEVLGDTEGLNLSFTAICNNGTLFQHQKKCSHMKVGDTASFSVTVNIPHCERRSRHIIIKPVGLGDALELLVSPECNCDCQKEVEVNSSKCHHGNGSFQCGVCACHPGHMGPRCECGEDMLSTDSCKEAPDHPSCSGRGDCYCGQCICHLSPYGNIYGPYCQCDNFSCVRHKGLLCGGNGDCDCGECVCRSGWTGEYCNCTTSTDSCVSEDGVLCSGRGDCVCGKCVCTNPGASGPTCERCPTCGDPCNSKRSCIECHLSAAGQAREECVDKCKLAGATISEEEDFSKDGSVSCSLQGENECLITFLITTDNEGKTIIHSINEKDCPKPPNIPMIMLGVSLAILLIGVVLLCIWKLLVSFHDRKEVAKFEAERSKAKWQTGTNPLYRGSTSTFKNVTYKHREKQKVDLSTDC", "assay": "binding affinity for integrin αvβ6", "settings": "data not shown"}, "[1]": {"test_system": "Integrin αVβ6-positive H2009 cells", "assay": "cell viability assay", "format": "cell-based, human", "settings": "200 nM to 5 µM, 24 h exposure, 72 h post-incubation, CellTiter Glo"}, "[2]": {"test_system": "Integrin αVβ6-positive H2009 cells", "assay": "flow cytometric analysis of doxorubicin uptake", "format": "cell-based, human", "settings": "30 µM, 2 h, flow cytometry"}, "H2009 cells": {"test_system": "H2009 cells", "settings": "ref personal communication, Drs. John D. Minna and Michael Peyton; cited from earlier work"}}}
{"compound": "DALRLQGTLR [scrambled sequence peptide]", "values": [{"measurement": "binding affinity for αvβ6", "setting": "αvβ6", "result": "no binding affinity"}]}
{"compound": "COc1cccc2c1C(=O)c1c(O)c3c(c(O)c1C2=O)C[C@@](O)(C(=O)CO)C[C@@H]3O[C@H]1C[C@H](N)[C@H](O)[C@H](C)O1", "note": "[doxorubicin, reference compound]", "values": [{"measurement": "pairwise comparison of viability of H2009 and H1299 cells", "setting": "[1]", "result": "did not demonstrate any statistical difference"}, {"measurement": "internalization into H2009 compared with H1299 cells", "setting": "[2]", "result": "internalizes into both cell lines equally"}]}
{"compound": "CC(=O)O[C@H]1C(=O)[C@@]2(C)[C@H]([C@H](OC(=O)c3ccccc3)[C@]3(O)C[C@H](OC(=O)[C@H](O)[C@@H](NC(=O)c4ccccc4)c4ccccc4)C(C)=C1C3(C)C)[C@]1(OC(C)=O)CO[C@@H]1C[C@@H]2O", "note": "[paclitaxel]", "values": [{"measurement": "IC50 relative to that of doxorubicin (fold lower)", "setting": "H2009 cells", "result": 40, "unit": "fold"}]}
